Data on three molecules can be found in publication PMC4226810 (Journal of pharmacokinetics and pharmacodynamics, 2014).

Where two headings read alike, the source gives them in different places.

A short description of data set [1]: Plasma pharmacokinetics after oral administration in MOLM13 xenograft mice. In kind it is in vivo, mouse. Conditions: for V / Vmax: one compartment model; for Km: CrTac:NCR-Foxn1nu nude; for Vmax: Michaelis-Menten elimination.
Data set [2] can be described thus: Fraction unbound by modified ultra-filtration method. To be noted: plasma. In kind it is in vitro ADME.
Data set [3] deals with STAT5^Y694 phosphorylation (biomarker of FLT3^ITD activity). Put plainly: Subcutaneous MOLM13 tumor cellular signaling: pSTAT5. To be noted: for inhibition of phosphorylation of STAT5 at the time of maximum effect: subcutaneous tumor. In kind it is in vivo, mouse.
Data set [4] relates to STAT5^Y694 phosphorylation. Put plainly: Orthotopic MOLM13-Luc tumor cellular signaling: pSTAT5. In kind it is in vivo, mouse. To be noted: model estimate (%RSE).
Another data set has as its system MOLM13-Luc tumors. Put plainly: Orthotopic tumor burden. To be noted: population mean. In kind it is in vivo, mouse.
Data set [5] has as its system Rb^S780 phosphorylation (biomarker of CDK4/6 activity). Put plainly: Subcutaneous MOLM13 tumor cellular signaling: pRb. To be noted: 50 mg/Kg QD multiple-day dosing, at 240 hr; baseline pRb(0) 82,600.
The conditions of data set [6]: absorption rate constant fixed based on previous studies ref 21, cited from earlier work.

Usually fraction unbound stands for the share of the substance not bound to proteins or other matrix. A low value points to extensive binding. The molecule `CC(C)(C)c1cc(NC(=O)Nc2ccc(-c3cn4c(n3)sc3cc(OCCN5CCOCC5)ccc34)cc2)no1` [AC220, quizartinib] had a k el in data set [1] (CrTac:NCR-Foxn1^nu nude, mouse, plasma, oral) of 5.31e-05 s⁻¹. Further, the V in data set [1] (estimate (%RSE)) is 0.0964 (10) L. Besides, the fraction unbound in data set [2] amounted to 0.0107.

What is called Km is the substrate concentration at which the rate is half of its maximum. Take `C[C@H]1CC[C@H](n2c3cnccc3c3cnc(Nc4ccc5c(n4)CCN(C(=O)CO)C5)nc32)CC1` [AMG925]: the Km in data set [1] (mouse, plasma, oral) was 0.0945 µM. Moreover, in data set [1] (estimate (%RSE)), the Vmax was 4.16 (3.1) nmol/h and the V was 0.109 (7.4) L. Moreover, the ka in data set [1] (absorption rate constant, estimate (%RSE)) was 1.00 (20) h^−1. The “ratio of IC50 on pSTAT5, subcutaneous xenograft over orthotopic xenograft” value in data set [3] (27.7 nM vs 6.08 nM) amounted to 4 fold. For the same molecule, the “measured value of pSTAT5 (mean+/−sd)” value in data set [3] (50 mg/Kg QD multiple-day dosing, at 240 hr, baseline pSTAT5(0) 18,000) is reported as 17020+/−1133. In data set [3] (single dose 150mg/kg oral), the “inhibition of phosphorylation of STAT5 at the time of maximum effect” value is “almost completely inhibit”. The “Hill coefficient of pSTAT5 inhibition (HAMG)” value in data set [4] was 1.92 (4.9). The “HR Hill coefficient” value in the data set with MOLM13-Luc tumors (pRb term of orthotopic tumor burden model) is 14.9. In the data set with MOLM13-Luc tumors (pSTAT5 term of orthotopic tumor burden model), the “HS Hill coefficient” value turned out to be 15.1. Further, the “measured value of pRb (mean+/−sd)” value in data set [5] is on record as 72870+/−1247.

`CNC(=O)c1cc(Oc2ccc(NC(=O)Nc3ccc(Cl)c(C(F)(F)F)c3)cc2)ccn1` [sorafenib]: the Km in data set [1] (mouse, plasma, oral) turned out to be 0.00985 µM. In data set [1] (estimate (%RSE)), the Vmax is 0.0736 (12) nmol/h and the V is recorded as 0.0247 (4.4) L. Moreover, in data set [3] (single dose 10mg/kg oral), the “inhibition of phosphorylation of STAT5 at the time of maximum effect” value is on record as “almost completely inhibit”. The “ratio of IC50 for pSTAT5 inhibition to IC50 for pRb inhibition” value in data set [3] (subcutaneous tumor signaling model) is 17 fold. Further, the “ka (Fixed)” value in data set [6] was 3 h⁻¹. In data set [6] (listed as Sorafenib), the “ka (Fixed)” value is reported as 3 (Fixed) h^−1.
